In patent US20230278981A1, “DICHLOROPHENOL HSD17B13 INHIBITORS AND USES THEREOF” (INIPHARM, INC., priority 2020, published 2023) one finds IC50 data, which are given here for 28 compounds.

The structures appear in SMILES notation. pIC50: −log10 of the molar value.

The experiment concerns the target HSD17B13 (Homo sapiens (Human), UniProt Q7Z5P4). Put plainly: LC/MS estrone detection assay: conversion of estradiol to estrone by HSD17B13. It is filed as biochemical. Particulars: 4 μM estradiol, 6 mM NAD+, 30 nM HSD17B13 enzyme (E. coli expressed His-tagged), 2 hours at 26.5° C. Summed up: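 His-tagged E. coli-expressed HSD17B13 (30 nM) with 4 μM estradiol and 6 mM NAD+ in 1 M potassium phosphate pH 7.4, 0.5% DMSO, 2 h at 26.5° C. Estrone and estradiol quantified by LC-MS/MS after MeCN quench with D4-estrone internal standard; activity as % of uninhibited enzyme, IC50 by four-parameter fit, duplicates.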

Sequence of HSD17B13 (Q7Z5P4 20-300): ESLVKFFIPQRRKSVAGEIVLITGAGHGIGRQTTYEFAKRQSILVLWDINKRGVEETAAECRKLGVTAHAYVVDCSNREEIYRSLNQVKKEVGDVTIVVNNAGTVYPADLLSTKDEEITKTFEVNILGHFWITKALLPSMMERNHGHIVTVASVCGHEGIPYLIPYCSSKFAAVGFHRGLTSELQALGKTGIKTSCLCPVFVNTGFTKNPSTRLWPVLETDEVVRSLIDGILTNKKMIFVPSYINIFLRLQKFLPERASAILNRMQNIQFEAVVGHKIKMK

As usually defined, the pIC50 is the IC50 on a negative log10 scale, so that one unit is a factor of ten. The low end stands for a high IC50, the high end for a low IC50. For `Cc1nc2c(Cl)ccc(NC(=O)c3cc(Cl)c(O)c(Cl)c3)c2c(=O)n1Cc1ncccc1C(F)(F)F` [Example 166, 3,5-dichloro-N-(8-chloro-2-methyl-4-oxo-3-((3-(trifluoromethyl)pyridin-2-yl)methyl)-3,4-dihydrjoquinazolin-5-yl)-4-hydroxybenzamide], the pIC50 is 6.30 to 7.00.
To `Cc1nc2c(F)ccc(NC(=O)c3cc(Cl)c(O)c(Cl)n3)c2c(=O)n1Cc1ccccc1C(F)(F)F` [Example 159, 4,6-dichloro-N-(8-fluoro-2-methyl-4-oxo-3-(2-(trifluoromethyl)benzyl)-3,4-dihydroquinazolin-5-yl)-5-hydroxypicolinamide] belongs 6.30 to 7.00; to `Cc1nc2c(F)ccc(NC(=O)c3cc(Cl)c(O)c(Cl)c3)c2c(=O)n1Cc1ncccc1C(F)(F)F` [Example 154, 3,5-dichloro-N-(8-fluoro-2-methyl-4-oxo-3-((3-(trifluoromethyl)pyridin-2-yl)methyl)-3,4-dihydroquinazolin-5-yl)-4-hydroxybenzamide], ≥ 7.00; to `Cc1nc2c(Cl)ccc(NC(=O)c3cc(Cl)c(O)c(Cl)c3)c2c(=O)n1Cc1ccccc1C(F)(F)F` [Example 156, 3,5-dichloro-N-(8-chloro-2-methyl-4-oxo-3-(2-(trifluoromethyl)benzyl)-3,4-dihydroquinazolin-5-yl)-4-hydroxybenzamide], ≥ 7.00.
`O=C(Nc1cccc2ncn(Cc3cnn4ccccc34)c(=O)c12)c1cc(Cl)c(O)c(Cl)c1` [Example 100, 3,5-dichloro-4-hydroxy-N-(4-oxo-3-(pyrazolo[1,5-a]pyridin-3-ylmethyl)-3,4-dihydroquinazolin-5-yl)benzamide]: the pIC50 was 6.30 to 7.00.
`O=C(Nc1csc2ncn(Cc3ccccc3)c(=O)c12)c1cc(Cl)c(O)c(Cl)n1` [Example 98, N-(3-benzyl-4-oxo-3,4-dihydrothieno[2,3-d]pyrimidin-5-yl)-4,6-dichloro-5-hydroxypicolinamide] gave a pIC50 of 6.30 to 7.00.
In the case of `Cc1nc2c(F)ccc(NC(=O)c3cc(Cl)c(O)c(Cl)c3)c2c(=O)n1Cc1cccc(C(F)(F)F)n1` [Example 197, 3,5-dichloro-N-(8-fluoro-2-methyl-4-oxo-3-((6-(trifluoromethyl)pyridin-2-yl)methyl)-3,4-dihydroquinazolin-5-yl)-4-hydroxybenzamide], the negative logarithm of the IC50 (pIC50) was 6.00 to 6.30.
`O=C(Nc1cccc2ncn(Cc3ncccc3F)c(=O)c12)c1cc(Cl)c(O)c(Cl)n1` [Example 140, 4,6-dichloro-N-(3-((3-fluoropyridin-2-yl)methyl)-4-oxo-3,4-dihydroquinazolin-5-yl)-5-hydroxypicolinamide] showed a pIC50 of 6.30 to 7.00.
For `O=C(Nc1scnc1C(=O)NCc1cccc(F)c1)c1cc(Cl)c(O)c(Cl)c1` [Example 34, 5-(3,5-dichloro-4-hydroxybenzamido)-N-(3-fluorobenzyl)thiazole-4-carboxamide], the pIC50 is ≥ 7.00.
`O=C(Nc1cccc2nc(C(F)(F)F)n(C3CC3c3ccccc3)c(=O)c12)c1cc(Cl)c(O)c(Cl)n1` (stereo not shown) [Example 101, 4,6-dichloro-5-hydroxy-N-(4-oxo-3-(2-phenylcyclopropyl)-2-(trifluoromethyl)-3,4-dihydroquinazolin-5-yl)picolinamide] showed a pIC50 of 5.00 to 6.00.
Consider `O=C(Nc1csc2ncn(Cc3ccccc3)c(=O)c12)c1cc(Cl)c(O)c(Cl)c1` [Example 97, N-(3-benzyl-4-oxo-3,4-dihydrothieno[2,3-d]pyrimidin-5-yl)-3,5-dichloro-4-hydroxybenzamide], for which the pIC50 is 6.30 to 7.00.
With `CS(=O)(=O)c1ccccc1Cn1cnc2cccc(NC(=O)c3cc(Cl)c(O)c(Cl)n3)c2c1=O` [Example 79, 4,6-dichloro-5-hydroxy-N-(3-(2-(methylsulfonyl)benzyl)-4-oxo-3,4-dihydroquinazolin-5-yl)picolinamide] the figure was 6.00 to 6.30; with `O=C(Nc1cccc2nc(C(F)(F)F)n(Cc3ccccc3OC(F)(F)F)c(=O)c12)c1cc(Cl)c(O)c(Cl)c1` [Example 70, 3,5-dichloro-4-hydroxy-N-(4-oxo-3-(2-(trifluoromethoxy)benzyl)-2-(trifluoromethyl)-3,4-dihydroquinazolin-5-yl)benzamide], 6.30 to 7.00.
In turn, `O=C(Nc1cccc2ncn(Cc3ccccc3)c(=O)c12)c1cc(Cl)c(O)c(Cl)c1` [Example 1, N-(3-benzyl-4-oxo-3,4-dihydroquinazolin-5-yl)-3,5-dichloro-4-hydroxybenzamide] showed a pIC50 of 6.30 to 7.00.
For the compound `Cc1nc2c(F)ccc(NC(=O)c3cc(Cl)c(O)c(Cl)c3)c2c(=O)n1C(C)c1ccccc1OC(F)(F)F` (stereo not shown) [Example 157, 3,5-dichloro-N-(8-fluoro-2-methyl-4-oxo-3-(1-(2-(trifluoromethoxy)phenyl)ethyl)-3,4-dihydroquinazolin-5-yl)-4-hydroxybenzamide], the pIC50 was 6.30 to 7.00.
For `O=C(Nc1cccc2ncn(Cc3cccc(OC(F)(F)F)c3)c(=O)c12)c1ccc(Cl)c(O)c1Cl` [Example 65, 2,4-dichloro-3-hydroxy-N-(4-oxo-3-(3-(trifluoromethoxy)benzyl)-3,4-dihydroquinazolin-5-yl)benzamide], the pIC50 is 5.00 to 6.00.
With `Cc1nsc(NC(=O)c2cc(Cl)c(O)c(Cl)c2)c1C(=O)N[C@@H](C)c1ccccc1F` [Example 126, (S)-5-(3,5-dichloro-4-hydroxybenzamido)-N-(1-(2-fluorophenyl)ethyl)-3-methylisothiazole-4-carboxamide], the pIC50 is ≥ 7.00.
With `O=C(Nc1cccc2ncn(Cc3ccn(-c4ccccc4F)n3)c(=O)c12)c1cc(Cl)c(O)c(Cl)c1` [Example 76, 3,5-dichloro-N-(3-((1-(2-fluorophenyl)-1H-pyrazol-3-yl)methyl)-4-oxo-3,4-dihydroquinazolin-5-yl)-4-hydroxybenzamide], the pIC50 was ≥ 7.00.
With `Cc1ccc(NC(=O)c2cc(Cl)c(O)c(Cl)n2)c2c(=O)n(Cc3ncccc3Cl)c(C)nc12` [Example 178, 4,6-dichloro-N-(3-((3-chloropyridin-2-yl)methyl)-2,8-dimethyl-4-oxo-3,4-dihydroquinazolin-5-yl)-5-hydroxypicolinamide] the figure was 6.00 to 6.30.
Regarding `O=C(Nc1ccc(Cl)c2ncn(Cc3ccccc3OC(F)(F)F)c(=O)c12)c1cc(Cl)c(O)c(Cl)c1` [Example 81, 3,5-dichloro-N-(8-chloro-4-oxo-3-(2-(trifluoromethoxy)benzyl)-3,4-dihydroquinazolin-5-yl)-4-hydroxybenzamide], the pIC50 was ≥ 7.00.
Turning to `Cn1c(=O)n(Cc2ccccc2OC(F)(F)F)c(=O)c2c(NC(=O)c3cc(Cl)c(O)c(Cl)n3)cccc21` [Example 113, 4,6-dichloro-5-hydroxy-N-(1-methyl-2,4-dioxo-3-(2-(trifluoromethoxy)benzyl)-1,2,3,4-tetrahydroquinazolin-5-yl)picolinamide], the pIC50 is 6.30 to 7.00.
To `O=C(N[C@@H]1CCCC[C@H]1C(=O)NCc1ccccc1OC(F)(F)F)c1cc(Cl)c(O)c(Cl)n1` [Example 145, 4,6-dichloro-5-hydroxy-N-((1R, 2R)-2-((2-(trifluoromethoxy)benzyl)carbamoyl)cyclohexyl)picolinamide] belongs 5.00 to 6.00.
`O=C(Nc1cccc2ncn(Cc3ccccc3N3CCS(=O)(=O)CC3)c(=O)c12)c1cc(Cl)c(O)c(Cl)c1` [Example 83, 3,5-dichloro-N-(3-(2-(1,1-dioxidothiomorpholino)benzyl)-4-oxo-3,4-dihydroquinazolin-5-yl)-4-hydroxybenzamide] had a pIC50 of 5.00 to 6.00.
`O=C(Nc1cccc2ncn(Cc3cccc(F)c3)c(=O)c12)c1cc(Cl)c(O)c(Cl)c1` [Example 16, 3,5-dichloro-N-(3-(3-fluorobenzyl)-4-oxo-3,4-dihydroquinazolin-5-yl)-4-hydroxybenzamide] gave a pIC50 of 6.30 to 7.00.
To `O=C(Nc1scnc1C(=O)NCc1cccc(C(F)(F)F)n1)c1cc(Cl)c(O)c(Cl)c1` [Example 198, 5-(3,5-dichloro-4-hydroxybenzamido)-N-((6-(trifluoromethyl)pyridin-2-yl)methyl)thiazole-4-carboxamide] belongs 6.00 to 6.30.
Compound `Cc1nsc(NC(=O)c2cc(Cl)c(O)c(Cl)n2)c1C(=O)NCc1ccccc1F` [Example 114, 5-(4,6-dichloro-5-hydroxypicolinamido)-N-(2-fluorobenzyl)-3-methylisothiazole-4-carboxamide] gave a pIC50 of 6.30 to 7.00.
With `O=C(Nc1scnc1C(=O)NCc1ccccc1C(F)(F)F)c1cc(Cl)c(O)c(Cl)n1` [Example 192, 5-(4,6-dichloro-5-hydroxypicolinamido)-N-(2-(trifluoromethyl)benzyl)thiazole-4-carboxamide] the figure was 6.30 to 7.00; with `O=C(Nc1cccc2ncn(C3(c4ccccc4F)CC3)c(=O)c12)c1cc(Cl)c(O)c(Cl)c1` [Example 21, 3,5-dichloro-N-(3-(1-(2-fluorophenyl)cyclopropyl)-4-oxo-3,4-dihydroquinazolin-5-yl)-4-hydroxybenzamide], ≥ 7.00.
